Measured values reported in patent publication US20260159486A1, “BENZO[H]QUINAZOLINE-4-AMINE DERIVATIVES FOR THE TREATMENT OF CANCER” (Redona Therapeutics, Inc., priority 2021, published 2026).

How the values were obtained:
[1] = target: T1, recombinant human CLK3 (Homo sapiens, UniProt P49761); test: CLK3 kinase assay (LANCE Ultra); format: biochemical; conditions: CLK3 0.5 nM, ATP 300 μM, 3 hours at 30° C.
T1 construct: purchased Thermo Fisher Scientific PV3826
Method in brief: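 Recombinant human CLK3 (0.5 nM) with ULight-CREBtide (50 nM) and 300 μM ATP, 3 h at 30 °C in kinase buffer; EDTA stop, then Eu-anti-phospho-CREB antibody (2 nM, 1 h RT), TR-FRET read at 665/620 nm. Inhibition normalized to DMSO and no-ATP wells; IC50 from 4-parameter fit, ten 1:3 concentrations in duplicate.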

[2] = system: CAL-51 cells; test: CAL-51 proliferation assay; format: cell-based; conditions: Homo sapiens, CAL-51, 72 h, YO-PRO-1 Iodide readout
Method in brief: (§1)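 Cells seeded at 750 per well, treated next day for 72 h at 37 °C with 0.5% final DMSO. Cell number read by YO-PRO-1 fluorescence after lysis, normalized to DMSO (100%) and time-zero cells (0%). GI50 from 4-parameter logistic fit, maximum constrained to 100%.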

[3] = system: MDA-MB-231 cells; test: MDA-MB-231 proliferation assay; format: cell-based; conditions: Homo sapiens, MDA-MB-231, 72 h, YO-PRO-1 Iodide readout
Method in brief: as §1

T1 sequence (P49761 whole entry): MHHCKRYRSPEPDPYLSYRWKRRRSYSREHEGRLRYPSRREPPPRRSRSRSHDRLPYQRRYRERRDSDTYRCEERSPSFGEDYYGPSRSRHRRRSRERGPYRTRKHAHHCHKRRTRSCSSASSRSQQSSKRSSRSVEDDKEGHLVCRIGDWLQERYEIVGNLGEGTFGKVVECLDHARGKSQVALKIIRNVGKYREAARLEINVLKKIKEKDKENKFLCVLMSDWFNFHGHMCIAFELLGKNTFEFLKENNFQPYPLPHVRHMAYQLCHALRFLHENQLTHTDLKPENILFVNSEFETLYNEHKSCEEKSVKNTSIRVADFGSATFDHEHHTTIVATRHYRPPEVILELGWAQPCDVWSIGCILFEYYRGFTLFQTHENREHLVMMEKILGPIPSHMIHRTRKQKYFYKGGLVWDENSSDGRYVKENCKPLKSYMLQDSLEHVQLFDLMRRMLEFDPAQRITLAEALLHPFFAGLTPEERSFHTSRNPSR

Row | IC50 [1] | GI50 [3] | SMILES | GI50 [2]
1 | 101 to 1000 nM | > 2000 nM | CC(C)CCN(C)c1c(O[C@H]2CC[C@H](N)CC2)ccc2c1CC(C)(C)c1c(N)ncnc1-2 [Example 104, 8-(trans-4-aminocyclohexoxy)-N7-isopentyl-N7,5,5-trimethyl-6H-benzo[h]quinazoline-4,7-diamine] | 100 to 2000 nM
2 | 101 to 1000 nM | 100 to 2000 nM | CN(Cc1cocn1)c1c(O[C@H]2CC[C@H](N)CC2)ccc2c1CC(C)(C)c1c(N)ncnc1-2 [Example 105, 8-(trans-4-aminocyclohexoxy)-N7,5,5-trimethyl-N7-(oxazol-4-ylmethyl)-6H-benzo[h]quinazoline-4,7-diamine] | 100 to 2000 nM
3 | 30 to 100 nM | 100 to 2000 nM | CC(C)CN(C)c1c(O[C@H]2CC[C@H](N)CC2)ccc2c1CC(C)(C)c1c(N)ncnc1-2 [Example 106, 8-(trans-4-aminocyclohexoxy)-N7-isobutyl-N7,5,5-trimethyl-6H-benzo[h]quinazoline-4,7-diamine] | 100 to 2000 nM
4 | 101 to 1000 nM | 100 to 2000 nM | CN(Cc1cccnc1)c1c(O[C@H]2CC[C@H](N)CC2)ccc2c1CC(C)(C)c1c(N)ncnc1-2 [Example 107, 8-(trans-4-aminocyclohexoxy)-N7,5,5-trimethyl-N7-(3-pyridylmethyl)-6H-benzo[h]quinazoline-4,7-diamine] | 100 to 2000 nM
5 | < 30 nM | 100 to 2000 nM | CC1(C)Cc2c(ccc(O[C@H]3CC[C@H](N)CC3)c2SCCC#N)-c2ncnc(N)c21 [Example 108, 3-[[4-amino-8-(trans-4-aminocyclohexoxy)-5,5-dimethyl-6H-benzo[h]quinazolin-7-yl]sulfanyl]propanenitrile] | < 100 nM
6 | 30 to 100 nM | 100 to 2000 nM | CN(CCC#N)c1cccc2c1CC(C)(C)c1c(N)ncnc1-2 [Example 109, 3-[(4-amino-5,5-dimethyl-6H-benzo[h]quinazolin-7-yl)-methyl-amino]propanenitrile] | < 100 nM
7 | < 30 nM | 100 to 2000 nM | CN(CC(C)(C)CO)c1c(O[C@H]2CC[C@H](N)CC2)ccc2c1CC(C)(C)c1c(N)ncnc1-2 [Example 110, 3-[[4-amino-8-(trans-4-aminocyclohexoxy)-5,5-dimethyl-6H-benzo[h]quinazolin-7-yl]-methyl-amino]-2,2-dimethyl-propan-1-ol] | < 100 nM
8 | 101 to 1000 nM | 100 to 2000 nM | CN(CCC(C)(C)O)c1c(O[C@H]2CC[C@H](N)CC2)ccc2c1CC(C)(C)c1c(N)ncnc1-2 [Example 111, 4-[[4-amino-8-(trans-4-aminocyclohexoxy)-5,5-dimethyl-6H-benzo[h]quinazolin-7-yl]-methyl-amino]-2-methyl-butan-2-ol] | 100 to 2000 nM
9 | 30 to 100 nM | > 2000 nM | CC1(C)Cc2c(ccc(O[C@H]3CC[C@H](N)CC3)c2S(=O)(=O)CCC#N)-c2ncnc(N)c21 [Example 112, 3-[[4-amino-8-(trans-4-aminocyclohexoxy)-5,5-dimethyl-6H-benzo[h]quinazolin-7-yl]sulfonyl]propanenitrile] | 100 to 2000 nM
10 | 30 to 100 nM | 100 to 2000 nM | CN(CC#N)S(=O)(=O)c1c(O[C@H]2CC[C@H](N)CC2)ccc2c1CC(C)(C)c1c(N)ncnc1-2 [Example 113, 4-amino-8-(trans-4-aminocyclohexoxy)-N-(cyanomethyl)-N,5,5-trimethyl-6H-benzo[h]quinazoline-7-sulfonamide] | 100 to 2000 nM
11 | < 30 nM | < 100 nM | CN(c1c(O[C@H]2CC[C@H](N)CC2)ccc2c1CC(C)(C)c1c(N)ncnc1-2)S(=O)(=O)c1ccc(F)cc1 [Example 114, N-[4-amino-8-(trans-4-aminocyclohexoxy)-5,5-dimethyl-6H-benzo[h]quinazolin-7-yl]-4-fluoro-N-methyl-benzenesulfonamide] | < 100 nM
12 | < 30 nM | 100 to 2000 nM | CN(CCC#N)c1c(Br)ccc2c1CC(C)(C)c1c(N)ncnc1-2 [Example 115, 3-[(4-amino-8-bromo-5,5-dimethyl-6H-benzo[h]quinazolin-7-yl)-methyl-amino]propanenitrile] | < 100 nM
13 | 30 to 100 nM | 100 to 2000 nM | CC1(C)Cc2c(ccc(O[C@H]3CC[C@H](N)CC3)c2S(=O)(=O)NCC#N)-c2ncnc(N)c21 [Example 116, 4-amino-8-(trans-4-aminocyclohexoxy)-N-(cyanomethyl)-5,5-dimethyl-6H-benzo[h]quinazoline-7-sulfonamide] | 100 to 2000 nM
14 | 30 to 100 nM | 100 to 2000 nM | CC1(C)Cc2c(ccc3c2N(CCC#N)CCO3)-c2ncnc(N)c21 [Example 117, 3-(7-amino-6,6-dimethyl-3,5-dihydro-2H-quinazolino[7,8-f][1,4]benzoxazin-4-yl)propanenitrile] | < 100 nM
15 | < 30 nM | < 100 nM | CN1CCN(c2ccc3c(c2N(C)CCC#N)CC(C)(C)c2c(N)ncnc2-3)CC1 [Example 118, 3-[[4-amino-5,5-dimethyl-8-(4-methylpiperazin-1-yl)-6H-benzo[h]quinazolin-7-yl]-methyl-amino]propanenitrile] | < 100 nM
16 | < 30 nM | 100 to 2000 nM | CC1(C)Cc2c(ccc(O[C@H]3CC[C@H](N)CC3)c2N2CCCS2(=O)=O)-c2ncnc(N)c21 [Example 119, 8-(trans-4-aminocyclohexoxy)-7-(1,1-dioxo-1,2-thiazolidin-2-yl)-5,5-dimethyl-6H-benzo[h]quinazolin-4-amine] | 100 to 2000 nM
17 | 101 to 1000 nM | 100 to 2000 nM | CC1(C)Cc2c(ccc(Br)c2N2CCC(C#N)C2)-c2ncnc(N)c21 (stereo not drawn) [Example 120, 1-(4-amino-8-bromo-5,5-dimethyl-6H-benzo[h]quinazolin-7-yl)pyrrolidine-3-carbonitrile] | 100 to 2000 nM
18 | < 30 nM | < 100 nM | CC1(C)Cc2c(ccc(Br)c2NC[C@@H]2CNC(=O)O2)-c2ncnc(N)c21 [Example 121, (5R)-5-[[(4-amino-8-bromo-5,5-dimethyl-6H-benzo[h]quinazolin-7-yl)amino]methyl]oxazolidin-2-one] | < 100 nM
19 | 101 to 1000 nM | > 2000 nM | COc1ccc2c(c1NCc1nnc(C(C)F)o1)CC(C)(C)c1c(N)ncnc1-2 (stereo not drawn) [Example 122, N7-[[5-(1-fluoroethyl)-1,3,4-oxadiazol-2-yl]methyl]-8-methoxy-5,5-dimethyl-6H-benzo[h]quinazoline-4,7-diamine] | 100 to 2000 nM
20 | < 30 nM | < 100 nM | CN(C)CCOc1ccc2c(c1N(C)CCC#N)CC(C)(C)c1c(N)ncnc1-2 [Example 123, 3-[[4-amino-8-[2-(dimethylamino)ethoxy]-5,5-dimethyl-6H-benzo[h]quinazolin-7-yl]-methyl-amino]propanenitrile] | < 100 nM
21 | 101 to 1000 nM | 100 to 2000 nM | COc1ccc2c(c1N(CCC#N)Cc1nnc(C(C)F)o1)CC(C)(C)c1c(N)ncnc1-2 (stereo not drawn) [Example 124, 3-[(4-amino-8-methoxy-5,5-dimethyl-6H-benzo[h]quinazolin-7-yl)-[[5-(1-fluoroethyl)-1,3,4-oxadiazol-2-yl]methyl]amino]propanenitrile] | 100 to 2000 nM
22 | < 30 nM | < 100 nM | CN(CCC#N)c1c(N2CCNCC2)ccc2c1CC(C)(C)c1c(N)ncnc1-2 [Example 125, 3-[(4-amino-5,5-dimethyl-8-piperazin-1-yl-6H-benzo[h]quinazolin-7-yl)-methyl-amino]propanenitrile] | < 100 nM
23 | 30 to 100 nM | 100 to 2000 nM | CN(C[C@@H]1CNC(=O)O1)c1c(Br)ccc2c1CC(C)(C)c1c(N)ncnc1-2 [Example 126, (5S)-5-[[(4-amino-8-bromo-5,5-dimethyl-6H-benzo[h]quinazolin-7-yl)-methyl-amino]methyl]oxazolidin-2-one] | 100 to 2000 nM
24 | 30 to 100 nM | 100 to 2000 nM | CC1(C)Cc2c(ccc(Br)c2NC[C@@H]2CN(CCO)C(=O)O2)-c2ncnc(N)c21 [Example 127, (5R)-5-[[(4-amino-8-bromo-5,5-dimethyl-6H-benzo[h]quinazolin-7-yl)amino]methyl]-3-(2-hydroxyethyl)oxazolidin-2-one] | 100 to 2000 nM
25 | < 30 nM | > 2000 nM | CC1(C)Cc2c(ccc(O[C@H]3CC[C@@H](N)CC3)c2NC[C@@H]2CNC(=O)O2)-c2ncnc(N)c21 [Example 128, (5R)-5-[[[4-amino-8-(cis-4-aminocyclohexoxy)-5,5-dimethyl-6H-benzo[h]quinazolin-7-yl]amino]methyl]oxazolidin-2-one] | > 2000 nM
26 | < 30 nM | > 2000 nM | CC1(C)Cc2c(ccc(O[C@H]3CC[C@H](N)CC3)c2NC[C@@H]2CNC(=O)O2)-c2ncnc(N)c21 [Example 129, (5R)-5-[[[4-amino-8-(trans-4-aminocyclohexoxy)-5,5-dimethyl-6H-benzo[h]quinazolin-7-yl]amino]methyl]oxazolidin-2-one] | > 2000 nM
27 | < 30 nM | > 2000 nM | CC1(C)Cc2c(ccc(O[C@H]3CC[C@@H](N4CCOCC4)CC3)c2NC[C@@H]2CNC(=O)O2)-c2ncnc(N)c21 [Example 130, (5R)-5-[[[4-amino-5,5-dimethyl-8-(cis-4-morpholinocyclohexoxy)-6H-benzo[h]quinazolin-7-yl]amino]methyl]oxazolidin-2-one] | 100 to 2000 nM
